Assay results: patent publication US8853219B2, “Compounds and compositions for cognition-enhancement, methods of making, and methods of treating” (NeuroSolis, Inc., priority 2010, dated 2014)

How the values were obtained:
[1] = Blood and brain concentrations (rats) after oral gavage; format: in vivo, rat; settings: rat brain, 10 mg/kg po, 1 hr, relative to MCD-386
Procedure: Long-Evans Hooded rats (Charles River: male, 250-350 g) were dosed with solutions of test compounds in PBS by oral gavage. At the desired time after dosing, the animals were anesthetized with isoflurane, and then euthanized by cervical dislocation. Blood was obtained by cardiac puncture, transferred to a 1.5 mL microcentrifuge tube containing 15U Heparin, and the plasma recovered after centrifugation. Brains were dissected, weighed, immediately chilled to 4° C., and homogenized using a PowerGen 125 homogenizer in five volumes of ice-cold 2% formic acid. Proteins were precipitated from plasma and brain homogenate with two and five volumes respectively of ice-cold 2% formic acid and clarified by centrifugation. The supernatant was ultra-filtered by centrifugation through a 3K MWCO spin column (Pall Life Sciences), following the manufacturer's instructions. The concentration of compound in the ultra-filtrate was subjected to reverse-phase liquid chromatography using a 150×2.1 mm Agilent C8 reverse-phase column on a Shimadzu Prominence LC, eluting the compounds with a gradient of 2% to 50% of acetonitrile+0.1% formic acid for compound MI-50,382, or an isocratic flow of 2% acetonitrile+0.1% formic acid for the rest of the compounds listed. The concentration of the compound in the column effluent was measured using an Applied Biosystems API-3200 triple quadrupole mass spectrometer equipped with an electrospray sample injection system. The counts of the characteristic parent and product ions of each test compound were converted to concentration units by comparison with a standard calibration curve.

[2] = Delivery of MCD-386 in rats by iontophoresis patch versus oral gavage: plasma concentration; format: in vivo; settings: rat
Procedure: Two patches were made up, consisting (in order from the outer layer to the skin contacting surface, respectively): adhesive tape (Transpore, 27 mm wide, 3M), circular stainless steel electrodes (22 mm dia) with a central hole for a stainless steel machine screw to which the electrode wire was attached, and 2 layers of 3mM CHR filter paper (Cat #3030-861, Whatman International, Ltd).
The mid-dorsal area of a Long Evans Hooded rat (approximate weight, 320 grams), surgically prepared with a jugular vein catheter (Charles River), was shaved and the skin was then cleaned using an Electrode Prep Pad (Professional Disposables, Inc, Cat #B59800). […]
Blood (400 μl) was withdrawn from the catheters in each rat every 30 minutes, transferred to 1.5 ml centrifuge tubes containing heparin (15 units/tube), and the plasma was separated by centrifugation from the cellular components. The plasma samples were maintained at 4 deg C. until analyzed. […]
The ultra-filtrates were subjected to reverse-phase liquid chromatography using a 150×2.1 mm Agilent C8 reverse-phase column on a Shimadzu Prominence LC, eluting the MCD-386 with an isocratic flow of 2% acetonitrile+0.1% formic acid. The concentration of MCD-386 in the column effluent was measured using an Applied Biosystems API-3200 triple quadrupole mass spectrometer equipped with a Turbo V source (electrospray sample injection) system. […]

[3] = target: T1, human muscarinic M1 receptors (Homo sapiens, UniProt P11229); assay: Stimulation of inositol phosphate production in A9L cells, human M1 (IPOne TR-FRET); format: cell-based; settings: huM1/A9L versus huM3/A9L
T1 construct: host or cells: A9L cells
T1 sequence (P11229 1-460): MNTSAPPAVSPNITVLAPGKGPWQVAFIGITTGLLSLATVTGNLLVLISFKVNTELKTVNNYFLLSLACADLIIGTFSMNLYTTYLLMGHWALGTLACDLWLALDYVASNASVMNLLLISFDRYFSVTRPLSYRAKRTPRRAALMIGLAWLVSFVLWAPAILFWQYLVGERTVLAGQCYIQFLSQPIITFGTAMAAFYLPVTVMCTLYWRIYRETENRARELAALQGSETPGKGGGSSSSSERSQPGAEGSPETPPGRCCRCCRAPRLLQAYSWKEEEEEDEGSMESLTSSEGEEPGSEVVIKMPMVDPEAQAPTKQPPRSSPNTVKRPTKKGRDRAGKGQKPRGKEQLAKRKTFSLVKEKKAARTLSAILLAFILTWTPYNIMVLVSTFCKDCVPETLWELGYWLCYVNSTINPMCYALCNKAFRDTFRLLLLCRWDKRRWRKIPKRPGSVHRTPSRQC

[4] = system: pooled male Sprague-Dawley rat liver microsomes; assay: Metabolism by rat liver microsomes; format: in vitro ADME; settings: 6 hours incubation
Procedure: (§1) Compounds were incubated with pooled male Sprague-Dawley rat liver microsomes (BD Biosciences, #452501) and an NADP-regenerating system in a phosphate buffer (pH 7.4) for a total of 6 hours. Aliquots were removed every 2 hours, and 1% formic acid was added to halt the reaction. Samples were centrifuged, filtered through 0.2 micron spinfilter and the amount of each compound in the supernatants was quantitated using LC/MS/MS.

[5] = system: pooled male human liver microsomes; assay: Metabolism by human liver microsomes; format: in vitro ADME; settings: 6 hours incubation
Procedure: as §1, with “human” for “Sprague-Dawley rat”, “#452172)” for “#452501)”

Brain Cmax (10 mg/kg po) 1 hr MCD-386 = 1.00 [1]	Bioavailability by transdermal delivery versus oral administration [2]	PAMPA units (PAMPA test)	Metabolism in rat liver microsomes [4]	Metabolism in human liver microsomes [5]	Structure (SMILES)	Selectivity for M1 versus M3 receptors [3]
1.00	up to three times higher	0.05			CCc1noc(C2CN=CNC2)n1 (stereo not shown) [MCD-386, 5-(3-ethyl-1,2,4-oxadiazol-5-yl)-1,4,5,6-tetrahydropyrimidine]	
		12.75	nearly completely metabolized	nearly completely metabolized	Cc1noc(C2=CCCN(C)C2)n1 [Compound 36, 3-methyl-5-(1-methyl-1,2,5,6-tetrahydropyridin-3-yl)-1,2,4-oxadiazole, reference compound]	some selectivity for M1 versus M3 receptors
